Our source for the inhibition, EC50 and LC50 values is ChEMBL document CHEMBL1146402, “New Oxygenated Sesquiterpenes from the Indonesian Soft Coral Nephthea chabrolii” (J Nat Prod, 1997).

For test [1], the system named is Spodoptera littoralis. The test is described as follows: Insecticidal activity in Spodoptera littoralis assessed as inhibition of larval growth at 530 ppm after 6 days by chronic feeding experiment. Format: functional. Conditions: 144 h.
Test [2] deals with Spodoptera littoralis. Briefly: Insecticidal activity in Spodoptera littoralis assessed as inhibition of larval growth after 6 days by chronic feeding experiment. Format: functional, organism-based.

The structures appear in SMILES notation. ≈ marks a conversion by molar mass, not a printed value.

What is called inhibition is the change of the read-out against control, counted positive when it falls. In general, LC50 refers to the concentration that kills 50% of the test population. Regarding `CC1=C2C[C@H](C(C)(C)O)CC[C@H](C)[C@@H]2CC1=O` [HYDROXYCOLORENONE], in the test on Spodoptera littoralis [1], the inhibition at 530 ppm turned out to be 90%. Moreover, in the test with Spodoptera littoralis [2], the EC50 amounted to 8.8 ppm. Further, the LC50 in the test with Spodoptera littoralis [2] (Spodoptera littoralis, 144 h) is 453 µg/mL (≈ 1920 µM).
